Data on 6 molecules can be found in ChEMBL document CHEMBL5143586, “Advances in the Development of Nonpeptide Small Molecules Targeting Ghrelin Receptor” (J Med Chem, 2022).

pKi: −log10 of the molar value.

By pKi is commonly meant the Ki on a negative log10 scale, so that one unit is a factor of ten.

Assay [1] deals with T1, Growth hormone secretagogue receptor type 1 (Homo sapiens, UniProt Q92847). Nature of the assay: Inverse agonist activity at GHS-R1a (unknown origin) relative to control. It is filed as functional.
T1 sequence (Q92847 whole entry): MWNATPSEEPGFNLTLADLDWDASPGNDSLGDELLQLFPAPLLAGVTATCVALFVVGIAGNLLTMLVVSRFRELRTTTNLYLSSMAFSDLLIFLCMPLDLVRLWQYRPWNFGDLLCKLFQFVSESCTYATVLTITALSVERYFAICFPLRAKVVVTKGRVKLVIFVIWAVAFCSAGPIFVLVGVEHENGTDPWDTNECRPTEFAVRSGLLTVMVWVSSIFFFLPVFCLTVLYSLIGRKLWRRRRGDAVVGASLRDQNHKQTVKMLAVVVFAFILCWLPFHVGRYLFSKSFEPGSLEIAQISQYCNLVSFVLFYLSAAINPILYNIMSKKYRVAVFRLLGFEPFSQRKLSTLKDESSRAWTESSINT
Assay [2] can be described thus: Binding affinity at mouse pancreas GHS-R1a assessed as inhibition constant. It counts as tissue-based.
Assay [3] has as its target T1, Growth hormone secretagogue receptor type 1. Nature of the assay: Binding affinity at GHS-R1a (unknown origin) assessed as inhibition constant.
Assay [4] shares this target. Description: Antagonist activity at GHS-R1a (unknown origin) relative to control. It counts as functional.

Take `CC(C)C[C@H](NC(=O)[C@H](CC(C)C)NC(=O)[C@@H](Cc1c[nH]c2ccccc12)NC(=O)[C@H](Cc1ccccc1)NC(=O)[C@@H](Cc1c[nH]c2ccccc12)NC(=O)[C@@H](N)CCCCN)C(N)=O`: the Emax in assay [1] is -55%. With `C[C@H]1CN(C(=O)c2ccc(-c3ccc(O[11CH3])cc3)cc2)CCN1C(=O)c1ccc2cc[nH]c2c1`, in assay [2], the pKi is 8.15. In the case of `COc1ccc(Cn2c([C@@H](Cc3c[nH]c4ccccc34)NC(=O)[C@H](CC(C)C)NC(=O)[C@H](CC(C)C)NC(C)=O)nnc2[C@@H](Cc2c[nH]c3ccccc23)NC(=O)[C@@H](N)CCCCN)cc1`, the pKi in assay [3] was 8.52. Further, the Emax in assay [1] is -37%. `COc1ccc(Cn2c([C@@H](Cc3c[nH]c4ccccc34)NC(=O)CO)nnc2[C@@H](Cc2c[nH]c3ccccc23)NC(=O)[C@H](CC(C)C)NC(=O)[C@H](CC(C)C)NC(C)=O)cc1`: in assay [4], the Emax turned out to be 0%. On to `Cc1ccccc1-c1nc2ccc(-c3ccc(Cl)cc3)cc2c(=O)n1C[C@@H]1CCCN(CC[18F])C1`, for which the pKi in assay [2] was 7.80. The same measure, in the same setting: then `Cc1ccccc1-c1nc2ccc(-c3ccc(Cl)cc3)cc2c(=O)n1C[C@@H]1CCCN(CCO[11CH3])C1`, with 8.40.
